Data published in US20250000896A1, “Xenon Gas for Use in the Treatment of Gliomas” (Universität Heidelberg, priority 2021, published 2025).

How the values were obtained:
Assay type in all cases: cell-based
U87MG glioma cells = test: Colony formation assay (CFA) with U87MG glioma cells after irradiation; settings: for mean survival fraction in relation to the control group: 50% Xe for 60 min after irradiation and/or 25 μM memantine, colonies counted after 14 days
Source text: (§1) In radiobiological research, colony formation assay (CFA) represents an established method to evaluate the in-vitro-effects of radiation treatment (RT) alone or in combination with additional substances on cell survival and reproduction capability. To provide a method for investigation of modulating properties mediated by gaseous agents in combination with ionizing radiation treatment, a system to combine CFA with gas exposure before, during or after radiation treatment was designed. Subsequently CFA were performed with established glioma cell lines U87MG and U251, as well as cervical cancer-derived cell line HeLa investigating the effect of xenon gas exposure on cell survival after radiation treatment. Expression of AMPAR and NMDAR subunits was tested by immunofluorescence staining. In vitro colony formation assay (CFA) comparing surviving fractions of irradiated U87MG cells and U251 cells exposed to 50% Xe and/or treated with 25 μM of memantine to a control group were performed. Additionally, a CFA comparing surviving fractions of irradiated HeLa cells exposed to 50% Xe to a control group was implemented. CFA were carried out in triplets of T25-flasks for each irradiation dose of 0, 2, 4, 6 and 8 Gy in three (U87MG and HeLa) or four (U251) independent repetitions. U87MG and HeLa cells were cultured in Dulbecco's modified eagle's medium (DMEM; U87: Biochrom AG, Berlin, Germany; HeLa: Thermo Fisher Scientific, Waltham, US) and U251 cells were cultured in Gibco Roswell Park Memorial Institute (RPMI) 1640 medium+GlutaMAX™ (Thermo Fisher Scientific, Waltham, US). Cells were stored in an incubator (ambient air with additional 5% CO2) and split regularly before confluence. In preparation of CFA, cells were dissolved, counted, and distributed into T25-flasks starting with 1000 cells (U87MG), 100 cells (U251), or 200 cells (HeLa) per flask for non-irradiated groups increasing the cell count with irradiation dose to 1000, 2000, 5000, and 10.000 cells (U87MG), 200, 600, 2000, and 5000 cells (U251), or 400, 800, 2000, and 4000 cells (HeLa), respectively. Cells were allowed to attach for 14 to 16 h (U87MG), for 4 h (U251), or for 5.5 h (HeLa) and 108 μl of either memantine-hydrochloride 0.25 mg/ml (Sigma-Aldrich Corp., St. Louis, USA) or distilled water as placebo were added 60 min at U87MG and 90 min at U251 and HeLa prior to irradiation, resulting in 25 μM memantine-hydrochloride per flask. For irradiation, 15 flasks (5 triplets, each for 0, 2, 4, 6, 8 Gy) were placed alongside the margin of eight acrylic glass plates (thickness 1.0 cm) with two plates further added on top to balance secondary electrons. Vertical position to the gantry of a conventional linear accelerator (Elekta Synergy, Elekta AB, Stockholm, Sweden) was allocated by wall-mounted lasers marking the center of the flasks' caps membrane, horizontal position was validated by opening the linear accelerator's light field (32.0×32.0 cm) and by positioning the plates centrally inside the field. The triplet from the 0 Gy dose-group was removed immediately after placement (sham-irradiation) and exchanged with dummy T25-flasks filled with water. After delivery of 181.2 MU of 6 MeV photons, equivalent to an effective dose of 2 Gy, the 2 Gy-triplet was removed and replaced by dummy flasks. This process was repeated until a cumulative dose of 8 Gy for the last triplet was reached. Gas exposure was performed after the radiation treatment described above. The flasks were exposed to a preformed gas mixture for 60 minutes containing either 75% Xe, 20% O2 and 5% CO2 for the xenon group or a mixture with the 75% Xe-proportion replaced by nitrogen (N2) for the memantine group and the control group. […] After exposure, the flasks membrane caps were sealed with custom PVC-plugs and stored in a heat cabinet for 24 hours. Finally, the membrane caps' plugs were removed and the flasks were transferred into the 5% CO2-incubator remaining untouched for 13 days (U87MG), 10 days (U251), or 10 days (HeLa). […]

U251 glioma cells = test: Colony formation assay (CFA) with U251 glioma cells after irradiation; settings: 50% Xe for 60 min after irradiation and/or 25 μM memantine, colonies counted after 11 days
Source text: as §1

[1] = tested on: HeLa cervical cancer cells; test: Colony formation assay (CFA) with HeLa cervical cancer cells after irradiation; settings: for mean survival fraction in relation to the control group: 50% Xe for 60 min after irradiation, colonies counted after 11 days
Source text: In radiobiological research, colony formation assay (CFA) represents an established method to evaluate the in-vitro-effects of radiation treatment (RT) alone or in combination with additional substances on cell survival and reproduction capability.
To provide a method for investigation of modulating properties mediated by gaseous agents in combination with ionizing radiation treatment, a system to combine CFA with gas exposure before, during or after radiation treatment was designed. Subsequently CFA were performed with established glioma cell lines U87MG and U251, as well as cervical cancer-derived cell line HeLa investigating the effect of xenon gas exposure on cell survival after radiation treatment. Expression of AMPAR and NMDAR subunits was tested by immunofluorescence staining.
In vitro colony formation assay (CFA) comparing surviving fractions of irradiated U87MG cells and U251 cells exposed to 50% Xe and/or treated with 25 μM of memantine to a control group were performed. Additionally, a CFA comparing surviving fractions of irradiated HeLa cells exposed to 50% Xe to a control group was implemented. CFA were carried out in triplets of T25-flasks for each irradiation dose of 0, 2, 4, 6 and 8 Gy in three (U87MG and HeLa) or four (U251) independent repetitions.
U87MG and HeLa cells were cultured in Dulbecco's modified eagle's medium (DMEM; U87: Biochrom AG, Berlin, Germany; HeLa: Thermo Fisher Scientific, Waltham, US) and U251 cells were cultured in Gibco Roswell Park Memorial Institute (RPMI) 1640 medium+GlutaMAX™ (Thermo Fisher Scientific, Waltham, US). Cells were stored in an incubator (ambient air with additional 5% CO2) and split regularly before confluence. In preparation of CFA, cells were dissolved, counted, and distributed into T25-flasks starting with 1000 cells (U87MG), 100 cells (U251), or 200 cells (HeLa) per flask for non-irradiated groups increasing the cell count with irradiation dose to 1000, 2000, 5000, and 10.000 cells (U87MG), 200, 600, 2000, and 5000 cells (U251), or 400, 800, 2000, and 4000 cells (HeLa), respectively. Cells were allowed to attach for 14 to 16 h (U87MG), for 4 h (U251), or for 5.5 h (HeLa) and 108 μl of either memantine-hydrochloride 0.25 mg/ml (Sigma-Aldrich Corp., St. Louis, USA) or distilled water as placebo were added 60 min at U87MG and 90 min at U251 and HeLa prior to irradiation, resulting in 25 μM memantine-hydrochloride per flask.
For irradiation, 15 flasks (5 triplets, each for 0, 2, 4, 6, 8 Gy) were placed alongside the margin of eight acrylic glass plates (thickness 1.0 cm) with two plates further added on top to balance secondary electrons. Vertical position to the gantry of a conventional linear accelerator (Elekta Synergy, Elekta AB, Stockholm, Sweden) was allocated by wall-mounted lasers marking the center of the flasks' caps membrane, horizontal position was validated by opening the linear accelerator's light field (32.0×32.0 cm) and by positioning the plates centrally inside the field. The triplet from the 0 Gy dose-group was removed immediately after placement (sham-irradiation) and exchanged with dummy T25-flasks filled with water. After delivery of 181.2 MU of 6 MeV photons, equivalent to an effective dose of 2 Gy, the 2 Gy-triplet was removed and replaced by dummy flasks. This process was repeated until a cumulative dose of 8 Gy for the last triplet was reached.
Gas exposure was performed after the radiation treatment described above. The flasks were exposed to a preformed gas mixture for 60 minutes containing either 75% Xe, 20% O2 and 5% CO2 for the xenon group or a mixture with the 75% Xe-proportion replaced by nitrogen (N2) for the memantine group and the control group. […] After exposure, the flasks membrane caps were sealed with custom PVC-plugs and stored in a heat cabinet for 24 hours. Finally, the membrane caps' plugs were removed and the flasks were transferred into the 5% CO2-incubator remaining untouched for 13 days (U87MG), 10 days (U251), or 10 days (HeLa). […]

Row | Structure (SMILES) | difference in survival to the groups without added memantine (U87MG glioma cells; 25 μM memantine, 0 to 8 Gy, t-test) | mean survival fraction in relation to the control group (U87MG glioma cells; radiation dose 0 Gy (sham)) | mean survival fraction in relation to the control group (U87MG glioma cells; radiation dose 2 Gy) | mean survival fraction in relation to the control group (U87MG glioma cells; radiation dose 4 Gy) | mean survival fraction in relation to the control group (U87MG glioma cells; radiation dose 6 Gy) | mean survival fraction in relation to the control group (U87MG glioma cells; radiation dose 8 Gy) | mean survival fraction in relation to the control group (U251 glioma cells; radiation dose 0 Gy (sham)) | mean survival fraction in relation to the control group (U251 glioma cells; radiation dose 2 Gy) | mean survival fraction in relation to the control group (U251 glioma cells; radiation dose 4 Gy) | mean survival fraction in relation to the control group (U251 glioma cells; radiation dose 6 Gy) | mean survival fraction in relation to the control group (U251 glioma cells; radiation dose 8 Gy) | impact of xenon exposure after irradiation on HeLa cell survival ([1]; 50% Xe after irradiation, except at a very high radiation dose level) | mean survival fraction in relation to the control group ([1]; radiation dose 0 Gy (sham)) | mean survival fraction in relation to the control group ([1]; radiation dose 2 Gy) | mean survival fraction in relation to the control group ([1]; radiation dose 4 Gy) | mean survival fraction in relation to the control group ([1]; radiation dose 6 Gy) | mean survival fraction in relation to the control group ([1]; radiation dose 8 Gy)
1 | CC12CC3CC(C)(C1)CC(N)(C3)C2 [memantine] | no significant differences | 93.8% | 46.8% | 28.5% | 15.9% | 8.0% | 72.3% | 34.1% | 11.9% | 3.8% | 1.0% | – | – | – | – | – | –
2 | [Xe] [xenon] | – | 94.2% | 41.5% | 25.0% | 10.3% | 4.7% | 78.7% | 37.5% | 14.6% | 4.2% | 1.0% | no impact | 114.7% | 71.1% | 23.5% | 7.1% | 2.0%
